Results from patent US6841561B1, “Dihydroorotate dehydrogenase inhibitors for the treatment of viral-mediated diseases” (priority 1999, dated 2005).
Several values for one entry are separate records, joined by “and”; a condition that tells them apart may be missing. Equal entries are not always repeated. Where two headings read alike, the source gives them in different places.

Legend:
[1] = test system: kunjin virus; experiment: microbe, parasite or virus in culture; type: cell-based; settings: West Nile virus
[2] = test system: dengue virus; experiment: microbe, parasite or virus in culture; type: cell-based; settings: Vero
[3] = test system: yellow fever virus; type: cell-based
[4] = test system: yellow fever virus; experiment: microbe, parasite or virus in culture
[5] = test system: respiratory syncytial virus; experiment: microbe, parasite or virus in culture; type: cell-based; settings: human respiratory syncytial virus, Vero, read-out: ED50 RSV VERO
[6] = test system: dengue virus; type: cell-based
[7] = test system: kunjin virus; type: cell-based
[8] = test system: VSV; type: cell-based, vesicular stomatitis virus
[9] = test system: yellow fever virus; experiment: in vitro
[10] = test system: vesicular stomatitis virus; experiment: in vitro; settings: human
[11] = test system: vesicular stomatitis virus; experiment: microbe, parasite or virus in culture
[12] = test system: hepatitis C; settings: patients with chronic hepatitis C; in combination with interferon; cited from earlier work

Row | SMILES | EC50 ([1]; Huh-7, read-out: ED50 KUN HuH7) | EC50 ([2]; read-out: ED50 DEN VERO) | EC50 ([4]; Huh-7, read-out: ED50 YFV HuH7) | EC50 ([4]; Vero, read-out: ED50 YFV VERO) | EC50 ([1]; Huh-7, read-out: ED50) | EC50 ([1]; Vero, read-out: ED50) | EC50 ([2]; read-out: ED50) | EC50 ([4]; Huh-7, read-out: ED50) | EC50 ([4]; Vero, read-out: ED50) | EC50 ([11]; Huh-7, read-out: ED50) | also measured
1 | O=C(O)c1cc(-c2ccc(-c3ccccc3)cc2)nc2ccc(OC(F)(F)F)cc12 [I2K5, 2-(4-biphenylyl)-6-trifluoromethoxy-quinoline-4-carboxylic acid] | 2 µM | 0.8 µM | 1.7 µM | 0.8 µM | – | – | – | – | – | – | Fold enhancement [3]: 3 fold
2 | COc1c(-c2cc(C(=O)O)c3cc(OC(F)(F)F)ccc3n2)ccc(OCc2ccccc2)c1C [I2K51, 2-(4-benzyloxy-2-methoxy-3-methyl-phenyl)-6-trifluoromethoxy-quinoline-4-carboxylic acid] | – | 2.6 µM | – | 1.3 µM | – | – | – | – | – | – | –
3 | Cc1c(-c2ccc(-c3ccccc3F)cc2)nc2ccc(F)cc2c1C(=O)[O-].[Na+] [Brequinar, 6-fluoro-2-(2′-fluoro-1,1′-biphenyl-4-yl)-3-methyl-4′-quinolinecarboxylic acid sodium salt] | 0.04 µM | 0.04 µM | 0.03 µM | 0.02 µM | 0.03 µM | 0.02 µM | 0.02 µM | 0.05 µM | 0.02 µM | 0.014 µM | EC50 [5]: 0.02 µM; Fold enhancement [6]: 10 fold; Fold enhancement [7]: 4.5 fold; Fold enhancement [8]: 266 fold; selectivity ratio ([9]; human): 60; selectivity ratio ([9]; monkey): 2670; selectivity ratio [10]: 2100; EC50 ([11]; Huh-7, read-out: ED50 VSV HuH7): 0.08 µM
4 | COc1cc(-c2ccc(Nc3ccccc3C(=O)O)c(OC)c2)ccc1Nc1ccccc1C(=O)O [Redoxal] | – | – | – | – | 0.52 µM | 0.39 µM | 0.39 µM | 0.63 µM | 0.25 µM | 0.63 µM | –
5 | Cc1c(-c2ccc(-c3ccccc3)cc2)nc2ccc(OC(F)(F)F)cc2c1C(=O)O [I2K55, 2-(4-biphenylyl)-3-methyl-6-trifluoromethoxy-quinoline-4-carboxylic acid] | 5.8 µM | 11.8 µM | 6.1 µM | 11.8 µM | – | – | – | – | – | – | –
6 | O=C(O)c1cc(-c2ccc(C3CCCCC3)cc2)nc2ccc(OC(F)(F)F)cc12 [I2K46, 2-(4-cyclohexylphenyl)-6-trifluoromethoxy-quinoline-4-carboxylic acid] | 6.3 µM | – | 5.1 µM | – | – | – | – | – | – | – | –
7 | O=C1C(O)=C(CC=C(Cl)Cl)C(=O)c2ccccc21 [Dichloroallyl lawsone, dichloroallyl lawsone] | – | – | – | – | 0.78 µM | – | – | 1.1 µM | 0.9 µM | 0.49 µM | –
8 | Cc1nc2c(n1-c1ccc(Br)cc1)C(=O)c1ccccc1C2=O [BNID, 1-(p-bromophenyl)-2-methyl-1H-naphth[2,3-d]imidazole-4,9-dione] | – | – | – | – | 1.15 µM | 1.05 µM | 1.25 µM | 1.15 µM | 1.25 µM | 0.64 µM | Fold enhancement [3]: 10 fold and 5 fold; Fold enhancement [7]: 6 fold
9 | O=C(O)c1cc(-c2ccc(Oc3ccccc3)cc2)nc2ccc(OC(F)(F)F)cc12 [I2K52, 2-(4-phenoxyphenyl)-6-trifluoromethoxy-quinoline-4-carboxylic acid] | 9.6 µM | – | 11.3 µM | – | – | – | – | – | – | – | –
10 | NC(=O)c1ncn([C@@H]2O[C@H](CO)[C@@H](O)[C@H]2O)n1 [Ribavirin] | – | – | – | – | 60 µM | 309 µM | 320 µM | 34 µM | 205 µM | 250 µM | combined treatment efficacy [12]: up to 40%; selectivity ratio ([9]; human): 70; selectivity ratio ([9]; monkey): 36; EC50 ([11]; MRC5, read-out: ED50): 120 µM
